Measured values: ChEMBL document CHEMBL1201862, “PubChem BioAssay data set” (2004)
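Growth conditions: 96-well plates. Treatment: test compound, 48 hours, 5 concentrations. Analysis: linear interpolation between bracketing concentrations; unreached endpoints set to highest concentration. At the GI50, growth is halved.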 The source made the active and inactive calls. Cut-off read from the data, not from the text of the source: active = GI50 up to about 1.1 µM and inactive = higher.

What was measured:
Assay in all cases: NCI tumour cell line growth inhibition, 48 h
SK-MEL-28 = system: SK-MEL-28
HT-29 = system: HT-29
SK-MEL-5 = system: SK-MEL-5
SF-295 = system: SF-295
A549 = system: A549
KM12 = system: KM12
IGROV-1 = system: IGROV-1
Malme-3M = system: Malme-3M
UACC-62 = system: UACC-62
OVCAR-3 = system: OVCAR-3
M14 = system: M14
HCC 2998 = system: HCC 2998
RPMI-8226 = system: RPMI-8226
CCRF-CEM = system: CCRF-CEM
SK-MEL-2 = system: SK-MEL-2
SF-539 = system: SF-539

Measured: GI50

CC(NC1CCCC[C@@H]1O)c1ccccc1 (some centres undefined)
inactive: SK-MEL-28 > 100 µM | HT-29 > 100 µM | SK-MEL-5 > 100 µM | SF-295 > 100 µM | A549 > 100 µM | KM12 > 100 µM | IGROV-1 > 100 µM | Malme-3M > 100 µM | UACC-62 > 100 µM | OVCAR-3 > 100 µM | M14 > 100 µM | HCC 2998 > 100 µM | RPMI-8226 > 100 µM | CCRF-CEM > 100 µM | SK-MEL-2 > 100 µM

O=C(O)COc1ccccc1C(=O)Nc1ccccc1
inactive: SK-MEL-28 > 100 µM | HT-29 > 100 µM | SK-MEL-5 > 100 µM | SF-295 > 100 µM | A549 > 100 µM | KM12 > 100 µM | IGROV-1 > 100 µM | Malme-3M > 100 µM | UACC-62 > 100 µM | OVCAR-3 > 100 µM | M14 > 100 µM | RPMI-8226 > 100 µM | CCRF-CEM > 100 µM | SK-MEL-2 > 100 µM | SF-539 > 100 µM

CC1OC=CC(=O)C1O (centres undefined)
inactive: SK-MEL-28 > 100 µM | HT-29 > 100 µM | SK-MEL-5 > 100 µM | SF-295 > 100 µM | A549 > 100 µM | KM12 > 100 µM | IGROV-1 > 100 µM | Malme-3M > 100 µM | UACC-62 > 100 µM | OVCAR-3 > 100 µM | M14 > 100 µM | HCC 2998 > 100 µM | CCRF-CEM 69.7 µM | SK-MEL-2 > 100 µM | SF-539 > 100 µM

C#Cc1c(C)c(/C=C/C(C)=C/C=C/C(C)=C/C(=O)OC)n(C)c1C
inactive: SK-MEL-28 > 100 µM | HT-29 > 100 µM | SF-295 > 100 µM | A549 > 100 µM | KM12 > 100 µM | IGROV-1 > 100 µM | Malme-3M > 100 µM | UACC-62 62.5 µM | OVCAR-3 > 100 µM | M14 > 100 µM | RPMI-8226 > 100 µM | CCRF-CEM > 100 µM | SK-MEL-2 > 100 µM | SF-539 > 100 µM

O=c1nc(-c2ccccc2)scc1-c1ccccc1
inactive: SK-MEL-28 > 100 µM | HT-29 > 100 µM | SK-MEL-5 > 100 µM | SF-295 > 100 µM | A549 > 100 µM | KM12 > 100 µM | IGROV-1 > 100 µM | Malme-3M > 100 µM | UACC-62 35.5 µM | OVCAR-3 > 100 µM | M14 > 100 µM | RPMI-8226 > 100 µM | CCRF-CEM > 100 µM | SK-MEL-2 > 100 µM | SF-539 > 100 µM
